In US6914045B2, “Glycopeptide antibiotics” (Wyeth Holdings Corporation, priority 2001, dated 2005):
In brackets after ≈: the same amount, converted by molar mass.

How the values were obtained:
Assay in all cases: in vitro antibacterial evaluation, MIC by broth dilution
Assay type in all cases: cell-based
Enterococcus sp. = details: broth dilution, 18 hours at 35° C.
Outline: (§1)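 Broth dilution per NCCLS standard M7-A2 in Muller-Hinton II […], with an inoculum of 5×10^5 CFU/mL and antibiotic spanning 64-0.06 μg/mL. The MIC is the lowest concentration that inhibits growth of the organism.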

Staphylococcus sp. = details: broth dilution, 18 hours at 35° C.
Outline: as §1

Streptococcus sp. = details: broth dilution, 18 hours at 35° C.
Outline: as §1

Escherichia coli = details: 18 hours at 35° C.

- MIC Enterococcus avium (GC 4558) (Enterococcus sp.): 128 µg/mL (≈ 87.3 µM)
- MIC Enterococcus faecalis (ATCC 29212) (Enterococcus sp.): >128 µg/mL
- MIC Enterococcus faecalis (GC 2242) (Enterococcus sp.): >128 µg/mL
- MIC Enterococcus faecalis (GC 2691) (Enterococcus sp.): >128 µg/mL
- MIC Enterococcus faecalis (GC 3059) (Enterococcus sp.): >128 µg/mL
- MIC Enterococcus faecalis (GC 4552) (Enterococcus sp.): >128 µg/mL
- MIC Enterococcus faecalis (GC 4553) (Enterococcus sp.): 128 µg/mL (≈ 87.3 µM)
- MIC Enterococcus faecalis (GC 4554) (Enterococcus sp.): >128 µg/mL
- MIC Enterococcus faecalis (GC 6189) (Enterococcus sp.): >128 µg/mL
- MIC Enterococcus faecium (GC 2243) (Enterococcus sp.): 128 µg/mL (≈ 87.3 µM)
- MIC Enterococcus faecium (GC 4556) (Enterococcus sp.): >128 µg/mL
- MIC Enterococcus faecium (GC 4557) (Enterococcus sp.): 32 µg/mL (≈ 21.8 µM)
- MIC Enterococcus faecalis (ATCC 29212) (Enterococcus sp.; inoculum 5×10^5 CFU/mL, strain ATCC 29212): >128 µg/mL
- MIC Enterococcus faecalis (GC 2242) (Enterococcus sp.; inoculum 5×10^5 CFU/mL, strain GC 2242): >128 µg/mL
- MIC Enterococcus faecium (GC 2243) (Enterococcus sp.; inoculum 5×10^5 CFU/mL, strain GC 2243): 128 µg/mL (≈ 87.3 µM)
- MIC Enterococcus faecalis (GC 2691) (Enterococcus sp.; inoculum 5×10^5 CFU/mL, strain GC 2691): >128 µg/mL
- MIC Enterococcus faecalis (GC 3059) (Enterococcus sp.; inoculum 5×10^5 CFU/mL, strain GC 3059): >128 µg/mL
- MIC Enterococcus faecalis (GC 4552) (Enterococcus sp.; inoculum 5×10^5 CFU/mL, strain GC 4552): >128 µg/mL
- MIC Enterococcus faecalis (GC 4553) (Enterococcus sp.; inoculum 5×10^5 CFU/mL, strain GC 4553): 128 µg/mL (≈ 87.3 µM)
- MIC Enterococcus faecalis (GC 4554) (Enterococcus sp.; inoculum 5×10^5 CFU/mL, strain GC 4554): >128 µg/mL
- MIC Enterococcus faecium (GC 4556) (Enterococcus sp.; inoculum 5×10^5 CFU/mL, strain GC 4556): >128 µg/mL
- MIC Enterococcus faecium (GC 4557) (Enterococcus sp.; inoculum 5×10^5 CFU/mL, strain GC 4557): 32 µg/mL (≈ 21.8 µM)
- MIC Enterococcus avium (GC 4558) (Enterococcus sp.; inoculum 5×10^5 CFU/mL, strain GC 4558): 128 µg/mL (≈ 87.3 µM)
- MIC Enterococcus faecalis (GC 6189) (Enterococcus sp.; inoculum 5×10^5 CFU/mL, strain GC 6189): >128 µg/mL
- MIC Coagulase Negative Staphylococcus (GC 4547) (Staphylococcus sp.): 64 µg/mL (≈ 43.7 µM)
- MIC Coagulase Negative Staphylococcus (GC 4548) (Staphylococcus sp.): 64 µg/mL (≈ 43.7 µM)
- MIC Coagulase Negative Staphylococcus (GC 4549) (Staphylococcus sp.): 64 µg/mL (≈ 43.7 µM)
- MIC Coagulase Negative Staphylococcus (GC 4551) (Staphylococcus sp.): 64 µg/mL (≈ 43.7 µM)
- MIC Coagulase Negative Staphylococcus (GC 6257) (Staphylococcus sp.): 32 µg/mL (≈ 21.8 µM)
- MIC Staphylococcus aureus (ATCC 29213) (Staphylococcus sp.): 128 µg/mL (≈ 87.3 µM)
- MIC Staphylococcus aureus (GC 1131) (Staphylococcus sp.): 128 µg/mL (≈ 87.3 µM)
- MIC Staphylococcus aureus (GC 3051) (Staphylococcus sp.): 128 µg/mL (≈ 87.3 µM)
- MIC Staphylococcus aureus (GC 3053) (Staphylococcus sp.): 128 µg/mL (≈ 87.3 µM)
- MIC Staphylococcus aureus (GC 4541) (Staphylococcus sp.): 64 µg/mL (≈ 43.7 µM)
- MIC Staphylococcus aureus (GC 4542) (Staphylococcus sp.): >128 µg/mL
- MIC Staphylococcus aureus (GC 4544) (Staphylococcus sp.): 128 µg/mL (≈ 87.3 µM)
- MIC Staphylococcus aureus (GC 4545) (Staphylococcus sp.): 128 µg/mL (≈ 87.3 µM)
- MIC Staphylococcus aureus-SMITH (GC 4543) (Staphylococcus sp.): 64 µg/mL (≈ 43.7 µM)
- MIC Staphylococcus aureus (ATCC 29213) (Staphylococcus sp.; strain ATCC 29213): 128 µg/mL (≈ 87.3 µM)
- MIC Staphylococcus aureus (GC 1131) (Staphylococcus sp.; strain GC 1131): 128 µg/mL (≈ 87.3 µM)
- MIC Staphylococcus aureus (GC 3051) (Staphylococcus sp.; strain GC 3051): 128 µg/mL (≈ 87.3 µM)
- MIC Staphylococcus aureus (GC 3053) (Staphylococcus sp.; strain GC 3053): 128 µg/mL (≈ 87.3 µM)
- MIC Staphylococcus aureus (GC 4541) (Staphylococcus sp.; strain GC 4541): 64 µg/mL (≈ 43.7 µM)
- MIC Staphylococcus aureus (GC 4542) (Staphylococcus sp.; strain GC 4542): >128 µg/mL
- MIC Staphylococcus aureus-SMITH (GC 4543) (Staphylococcus sp.; strain GC 4543): 64 µg/mL (≈ 43.7 µM)
- MIC Staphylococcus aureus (GC 4544) (Staphylococcus sp.; strain GC 4544): 128 µg/mL (≈ 87.3 µM)
- MIC Staphylococcus aureus (GC 4545) (Staphylococcus sp.; strain GC 4545): 128 µg/mL (≈ 87.3 µM)
- MIC Coagulase Negative Staphylococcus (GC 4547) (Staphylococcus sp.; strain GC 4547): 64 µg/mL (≈ 43.7 µM)
- MIC Coagulase Negative Staphylococcus (GC 4548) (Staphylococcus sp.; strain GC 4548): 64 µg/mL (≈ 43.7 µM)
- MIC Coagulase Negative Staphylococcus (GC 4549) (Staphylococcus sp.; strain GC 4549): 64 µg/mL (≈ 43.7 µM)
- MIC Coagulase Negative Staphylococcus (GC 4551) (Staphylococcus sp.; strain GC 4551): 64 µg/mL (≈ 43.7 µM)
- MIC Coagulase Negative Staphylococcus (GC 6257) (Staphylococcus sp.; strain GC 6257): 32 µg/mL (≈ 21.8 µM)
- MIC Streptococcus agalactiae (GC 4564) (Streptococcus sp.): 32 µg/mL (≈ 21.8 µM)
- MIC Streptococcus pneumoniae (ATCC 6301) (Streptococcus sp.): 32 µg/mL (≈ 21.8 µM)
- MIC Streptococcus pneumoniae (GC 1894) (Streptococcus sp.): 16 µg/mL (≈ 10.9 µM)
- MIC Streptococcus pneumoniae (GC 4565) (Streptococcus sp.): 32 µg/mL (≈ 21.8 µM)
- MIC Streptococcus pyogenes (GC 4563) (Streptococcus sp.): 64 µg/mL (≈ 43.7 µM)
- MIC Streptococcus pneumoniae (ATCC 6301) (Streptococcus sp.; inoculum 5×10^5 CFU/mL, strain ATCC 6301): 32 µg/mL (≈ 21.8 µM)
- MIC Streptococcus pneumoniae (GC 1894) (Streptococcus sp.; inoculum 5×10^5 CFU/mL, strain GC 1894): 16 µg/mL (≈ 10.9 µM)
- MIC Streptococcus pyogenes (GC 4563) (Streptococcus sp.; inoculum 5×10^5 CFU/mL, strain GC 4563): 64 µg/mL (≈ 43.7 µM)
- MIC Streptococcus agalactiae (GC 4564) (Streptococcus sp.; inoculum 5×10^5 CFU/mL, strain GC 4564): 32 µg/mL (≈ 21.8 µM)
- MIC Streptococcus pneumoniae (GC 4565) (Streptococcus sp.; inoculum 5×10^5 CFU/mL, strain GC 4565): 32 µg/mL (≈ 21.8 µM)
- MIC Escherichia coli (ATCC 25922) (Escherichia coli): >128 µg/mL
- MIC Escherichia coli (GC 4559) (Escherichia coli): >128 µg/mL
- MIC Escherichia coli (GC 4560) (Escherichia coli): 32 µg/mL (≈ 21.8 µM)
Compound: COc1ccc2cc(COC3C(OC4C(CO)OC(Oc5ccc(CC6NC(=O)C(C(C)c7ccccc7)NC(=O)CNC(=O)C(CO)NC(=O)C(C(O)C7CNC(=N)N7C7OC(CO)C(O)C(O)C7O)NC(=O)C(C(O)C7CNC(=N)N7)NC6=O)cc5)C(O)C4O)OC(CO)C(O)C3O)ccc2c1 (stereo not drawn) [Example 230c, Cyclo[glycyl-β-methylphenylalanyl-O-[4-O-[2-O-[(6-methoxy-2-naphthyl)methyl]hexopyranosyl]hexopyranosyl]tyrosyl-3-(2-iminoimidazolidin-4-yl)seryl-3-(3-hexopyranosyl-2-iminoimidazolidin-4-yl)serylseryl]]
- MIC Staphylococcus haemolyticus (GC 4546) (Staphylococcus sp.): 64 µg/mL (≈ 43.7 µM)
- MIC Staphylococcus haemolyticus (GC 4546) (Staphylococcus sp.; strain GC 4546): 64 µg/mL (≈ 43.7 µM)
